The IC50 is the midpoint of a concentration-inhibition curve. The term EC50 denotes the concentration that produces a half-maximal response.

Our source for the IC50 and EC50 values is patent US11339185B2, “Cyclic dinucleotides as anticancer agents” (Bristol-Myers Squibb Company, priority 2018, dated 2022).

Assay [1] has as its target T1, STING AQ: His-TVMV-S-hSTING(155-341)-G230A-R293Q (Homo sapiens, UniProt Q86WV6, G230A/H232R/R293Q).
T1 construct: STING AQ: His-TVMV-S-hSTING(155-341)-G230A-R293Q
Description: STING HTRF binding assay (time resolved FRET competition), STING AQ. The note with it: 20 nM His-tagged STING AQ cytoplasmic domain, 40 nM fluorescein-labeled cGAMP analog probe, one hour; read-out: HTRF Binding Assays IC50 (μM) AQ. Here is the method:
(§1) A time resolved FRET-based competition binding assay was used to assess test article binding to STING WT and STING AQ. His-tagged STING cytoplasmic domain (WT or AQ) at a concentration of 20 nM was incubated with 2.5 nM Tb-labeled anti-His antibody, test compound, and fluorescein-labeled cGAMP analog probe (BioLog cat. no. C195) at a concentration of 200 nM (STING WT) or 40 nM (STING AQ) in PBS containing 0.005% Tween-20 and 0.1% BSA for one hour. Fluorescence at 495 nm and 520 nm was measured using an EnVision microplate reader to quantify FRET between Tb-labeled anti-His antibody and fluorescein-labeled probe. Background was defined as the signal obtained in the absence of STING protein, and background subtracted FRET ratios were normalized to the maximum signal obtained in the absence of test compound. These values were converted to a percent inhibition. Percent inhibition was determined for test compounds at 11 concentrations. The IC50, defined as the concentration of competing test compound needed to reduce specific binding of the probe by 50%, was calculated using the 4 parameter logistic equation to fit the data

Assay [2] has as its system THP1-Dual cells, NF-κB pathway. Description: STING THP1 Reporter Assay, NF-κB pathway (SEAP, QUANTI-Blue). The assay is classed as cell-based. The settings on record: 10% human plasma, SEAP readout (OD620), 100% activation = 100 μM cGAMP, read-out: THP1 Reporter Assays EC50 (μM) NFkB. An excerpt: (§2) THP1-Dual™ cells were derived from the human THP-1 monocyte cell line by stable integration of two inducible reporter constructs. To this end, THP1-Dual™ cells allow the simultaneous study of the NF-κB pathway, by monitoring the activity of SEAP, and the IRF pathway by assessing the activity of a secreted luciferase (Lucia). Both reporter proteins are readily measurable in the cell culture supernatant when using QUANTI-Blue™, a SEAP detection reagent, and QUANTI-Luc™, a luciferase detection reagent.
(§3) THP1-Dual™ cells induce the activation of NF-κB in response to STING agonists. They also trigger the IRF pathway upon stimulation with STING agonists, such as cGAMP. Here, the THP-1-Dual cells were used to assess STING binders for function on the cellular level.
(§4) Serial dilutions of compounds in DMSO were added to low volume 384 well plates at 100 nl/well using an ECHO acoustic dispenser (Labcyte, model 550) to achieve final starting concentration of 100 μM in cell suspension. THP-1 Dual™ STING reporter cells (Invivogen, Dual cells cat #THPD-nfis) were added to the plates with compounds at 15,000 cells in 10 μL per well in RPMI media (Gibco, cat #11875) containing 10% human plasma in a low volume 384-well black wall clear bottom tissue culture plate (Corning, cat #3542) for SEAP assay and low volume solid white plate (Corning, cat #3826) for luciferase assay. One column of the plate was reserved for treatment with cGAMP at 100 μM for 100% activation calculation and one column for no treatment (DMSO only) for baseline activation. Plates were then incubated in 37 OC incubator at 5% CO2 for 20 hours.
(§5) In the SEAP assay, 5 μl of 2× QuantiBlue (Invivogen, cat #Rep-qb2) is added to 384 well black plates seeded with THP1 cells and incubated at 37° C. for 2 hours. Plates were read on the Envision (Perkin Elmer) at 620 nm wavelength (OD620). In the luciferase assay, 5 μl of Quantiluc (Invivogen, Rep-qlc2) is added to white 384 well plates seeded with THP1 cells and read at 5 minutes on the Envision (Perkin Elmer) using a luminescence protocol (RLU). For both cell lines, 100% activation was determined by value (RLU) of THP-1 Dual STING cells stimulated with 100 μM cGAMP (Invivogen, cat #TLRL-NACGA23-5).
In general terms: A reporter such as luciferase makes a cellular process visible.

Assay [3] concerns THP1-Dual cells, IRF pathway (IRF3). Description: STING THP1 Reporter Assay, IRF pathway (secreted Lucia luciferase, QUANTI-Luc). The note with it: 10% human plasma, luciferase readout, 100% activation = 100 μM cGAMP, read-out: THP1 Reporter Assays EC50 (μM) IRF3. The format is cell-based.
Excerpt: as §2, §3, §4, §5

The target of assay [4] is T2, STING WT: His-TVMV-S-hSTING(155-341)-H232R (Homo sapiens, UniProt Q86WV6, H232R).
T2 construct: STING WT: His-TVMV-S-hSTING(155-341)-H232R
Nature of the assay: STING HTRF binding assay (time resolved FRET competition), STING WT. The note with it: 20 nM His-tagged STING WT cytoplasmic domain, 200 nM fluorescein-labeled cGAMP analog probe, one hour; read-out: HTRF Binding Assays IC50 (μM) WT. Here is the method: as §1

Read-outs that look alike come from different tables or passages of the source.

T2 sequence (Q86WV6 with tags, fused parts or gaps H232R): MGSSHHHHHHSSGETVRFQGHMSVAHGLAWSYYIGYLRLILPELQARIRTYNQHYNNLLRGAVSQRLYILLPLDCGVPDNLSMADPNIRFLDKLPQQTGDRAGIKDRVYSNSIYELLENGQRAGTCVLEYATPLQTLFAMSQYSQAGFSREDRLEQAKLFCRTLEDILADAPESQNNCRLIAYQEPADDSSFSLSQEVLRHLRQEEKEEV
T1 sequence (Q86WV6 with tags, fused parts or gaps G230A/H232R/R293Q): as the sequence (Q86WV6 with tags, fused parts or gaps H232R) above, with G99A, R162Q counted along it

`O=P1(S)OC[C@@H]2[C@@H](COP(=O)(S)O[C@H]3[C@@H](F)[C@H](n4cnc5c4ncn4ccnc54)O[C@@H]3CO1)C[C@H]2n1cnc2c(Cl)ncnc21` (single isomer, unassigned) [Example 18-3]: the IC50 was 2.81 µM in assay [1] and > 100 µM in assay [4]. For the same compound, the EC50 in assay [2] (20 hours) and in assay [3] (20 hours) was > 100 µM each time.

`Nc1ncnc2c1ncn2[C@@H]1C[C@@H]2COP(=O)(S)O[C@@H]3[C@H](F)[C@@H](COP(=O)(S)OC[C@H]21)O[C@H]3n1cnc2c1ncn1ccnc21` (single isomer, unassigned) [Example 8-3]: the IC50 in assay [1] came to 0.3 µM; in assay [4], 0.89 µM. The EC50 in assay [2] (20 hours) and in assay [3] (20 hours) was > 100 µM each time.

As to `Nc1ncnc2c1ncn2[C@@H]1C[C@@H]2COP(=O)(S)O[C@H]3[C@@H](O)[C@H](n4cnc5c(=O)n6cc[nH]c6nc54)O[C@@H]3COP(=O)(S)OC[C@H]21` (single isomer, unassigned) [Example 5-2], the values for the IC50 in assay [1] and in assay [4] were 11.8 µM and > 100 µM, respectively. Further, the EC50 in assay [2] (20 hours) and in assay [3] (20 hours) was > 100 µM throughout.

In the case of `NC(=O)c1cc([C@@H]2O[C@@H]3COP(=O)(S)OC[C@@H]4[C@@H](COP(=O)(S)O[C@@H]2[C@@H]3O)C[C@H]4n2cnc3c(N)ncnc32)ccn1` (single isomer, unassigned) [Example 20-3], the IC50 in assay [1] and in assay [4] was 0.01 µM in each case. For the same compound, the EC50 in assay [2] (20 hours) came to 7.64 µM; in assay [3] (20 hours) it was 5.23 µM.

On to `Nc1ncnc2c1ncn2[C@@H]1O[C@@H]2COP(=O)(S)OC[C@@H]3[C@@H](COP(=O)(S)O[C@H]2[C@H]1F)C[C@H]3n1cnc2c(=O)n3nnnc3[nH]c21` (single isomer, unassigned) [Example 23], for which the values for the IC50 in assay [1] and in assay [4] were 0.07 µM and 4.96 µM, respectively. In addition, the EC50 in assay [2] (Homo sapiens, THP1-Dual, 20 h) was 92.2 µM; in assay [3] (Homo sapiens, THP1-Dual, 20 h), > 100 µM.

With `NC(=O)c1cc([C@@H]2C[C@@H]3COP(=O)(S)O[C@H]4[C@@H](F)[C@H](n5cnc6c(N)ncnc65)O[C@@H]4COP(=O)(S)OC[C@H]32)ccn1` (single isomer, unassigned) [Example 9], the figures for the IC50 in assay [1] and in assay [4] were 0.02 µM and 1.41 µM, respectively. Also, the EC50 in assay [2] (20 hours) was 23.5 µM; in assay [3] (20 hours), 18.4 µM.

For the compound `Nc1ncnc2c1ncn2[C@@H]1C[C@@H]2COP(=O)(S)O[C@H]3[C@@H](F)[C@H](n4cnc5c4ncn4ccnc54)O[C@@H]3COP(=O)(S)OC[C@H]21` (single isomer, unassigned) [Example 17-3], the IC50 in assay [1] came to 0.11 µM; in assay [4], 5.22 µM. Besides, the EC50 in assay [2] (20 hours) was 89.6 µM; in assay [3] (20 hours) it was 73.7 µM.

With `Nc1ncnc2c1ncn2[C@@H]1C[C@@H]2COP(=O)(S)O[C@@H]3[C@H](F)[C@@H](COP(=O)(S)OC[C@H]21)O[C@H]3n1cnc2c1ncn1ccnc21` (single isomer, unassigned) [Example 8-1], the IC50 in assay [1] amounted to 3.41 µM; in assay [4], 11.1 µM. Besides, the EC50 in assay [2] (20 hours) and in assay [3] (20 hours) was > 100 µM each time.

Consider `Nc1ncnc2c1ncn2[C@@H]1C[C@@H]2COP(=O)(S)O[C@@H]3[C@H](F)[C@@H](COP(=O)(S)OC[C@H]21)O[C@H]3n1cnc2c(=O)n3cc[nH]c3nc21` (single isomer, unassigned) [Example 6-3], for which the IC50 stood at 0.22 µM in assay [1] and 9.24 µM in assay [4]. For the same compound, the EC50 in assay [2] (20 hours) and in assay [3] (20 hours) was > 100 µM throughout.

`NC(=O)c1cc([C@@H]2O[C@@H]3COP(=O)(S)OC[C@@H]4[C@@H](COP(=O)(S)O[C@@H]2[C@@H]3O)C[C@H]4n2cnc3c(N)ncnc32)ccn1` (single isomer, unassigned) [Example 20-2]: the IC50 in assay [1] and in assay [4] was > 100 µM throughout. Further, the EC50 in assay [2] (20 hours) and in assay [3] (20 hours) was > 100 µM in each case.

As to `NC(=O)c1cc([C@@H]2O[C@@H]3COP(=O)(S)OC[C@@H]4[C@@H](COP(=O)(S)O[C@@H]2[C@@H]3O)C[C@H]4n2cnc3c(N)ncnc32)ccn1` (single isomer, unassigned) [Example 20-1], the IC50 in assay [1] and in assay [4] was > 100 µM throughout. The EC50 in assay [2] (20 hours) and in assay [3] (20 hours) was > 100 µM throughout.

Regarding `Nc1ncnc2c1ncn2[C@@H]1C[C@@H]2COP(=O)(O)O[C@@H]3[C@H](O)[C@@H](COP(=O)(S)OC[C@H]21)O[C@H]3n1cnc2c(=O)n3ccnc3[nH]c21` (single isomer, unassigned) [Example 4-1], the results for the IC50 in assay [1] and in assay [4] were 0.1 µM and 11.1 µM, respectively. Moreover, the EC50 in assay [2] (Homo sapiens, THP1-Dual, 20 h) is > 100 µM; in assay [3] (Homo sapiens, THP1-Dual, 20 h) it was > 100 µM.

For `NC(=O)c1cc([C@@H]2C[C@@H]3COP(=O)(S)O[C@H]4[C@H](F)[C@H](n5cnc6c(N)ncnc65)O[C@@H]4COP(=O)(S)OC[C@H]32)ccn1` (single isomer, unassigned) [Example 11], the IC50 in assay [1] amounted to 10.1 µM; in assay [4], 52.5 µM. Further, the EC50 in assay [2] (Homo sapiens, THP1-Dual, 20 h) was > 100 µM; in assay [3] (Homo sapiens, THP1-Dual, 20 h), > 100 µM.

As to `Nc1ncnc2c1ncn2[C@@H]1C[C@@H]2COP(=O)(S)O[C@@H]3[C@H](F)[C@@H](COP(=O)(S)OC[C@H]21)O[C@H]3n1cnc2c1ncn1ccnc21` (single isomer, unassigned) [Example 8-2], the IC50 in assay [1] amounted to 0.51 µM; in assay [4], 3.43 µM. The EC50 in assay [2] (20 hours) and in assay [3] (20 hours) was > 100 µM in each case.

On to `Nc1ncnc2c1ncn2[C@@H]1C[C@@H]2COP(=O)(S)O[C@H]3[C@@H](F)[C@H](n4cnc5c4ncn4ccnc54)O[C@@H]3COP(=O)(S)OC[C@H]21` (single isomer, unassigned) [Example 17-1], for which the results for the IC50 in assay [1] and in assay [4] were 3.55 µM and > 100 µM, respectively. Also, the EC50 was > 100 µM in assay [2] (Homo sapiens, THP1-Dual, 20 h) and > 100 µM in assay [3] (Homo sapiens, THP1-Dual, 20 h).

For the compound `Nc1ncnc2c1ncn2[C@@H]1O[C@@H]2COP(=O)(S)OC[C@@H]3[C@@H](COP(=O)(S)O[C@H]2[C@H]1F)C[C@H]3n1cnc2c1ncn1ccnc21` (single isomer, unassigned) [Example 3-1], the figures for the concentration for half-maximal inhibition (IC50) in assay [1] and in assay [4] were 0.09 µM and 1.38 µM, respectively. Besides, the values for the EC50 in assay [2] (20 hours) and in assay [3] (20 hours) were > 100 µM and 93.1 µM, respectively.

`Nc1ncnc2c1ncn2[C@@H]1C[C@@H]2COP(=O)(S)O[C@@H]3[C@H](O)[C@@H](COP(=O)(S)OC[C@H]21)O[C@H]3n1cnc2c(=O)n3ccnc3[nH]c21` (single isomer, unassigned) [Example 2-1]: the IC50 in assay [1] was determined as 0.002 µM; in assay [4], 0.06 µM. The EC50 in assay [2] (Homo sapiens, THP1-Dual, 20 h) was determined as 7.15 µM; in assay [3] (Homo sapiens, THP1-Dual, 20 h), 3.07 µM.
